Data published in PubChem BioAssay AID248 (DTP/NCI, 2004).
“And” between values parts separate entries of the source, which are not always exact repeats. Identical values can stand only once. Inconclusive results and toxic doses are left out. Rule as the data show it: active = T/C of 150% or more; inactive = T/C below 125%.

System: L1210 leukemia ip in BDF1 mice, survival T/C
Test: NCI In Vivo Anticancer Drug Screen. Data for tumor model L1210 Leukemia (intraperitoneal) in B6D2F1 (BDF1) mice
Conditions: endpoint: mean survival time, higher = longer survival
Outline: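 Transplantable tumor model; survival measured in treated vs vehicle control mice. Value = treated/control.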

[1] = dose: 100.0 mg/kg/injection, schedule: Q01DX009 (ip), vehicle: saline with Tween-80
[2] = dose: 200.0 mg/kg/injection, schedule: Q01DX009 (ip), vehicle: saline with Tween-80
[3] = dose: 400.0 mg/kg/injection, schedule: Q01DX009 (ip), vehicle: saline with Tween-80
[4] = dose: 100.0 mg/kg/injection, schedule: Q04DX003 (ip), vehicle: saline
[5] = dose: 100.0 mg/kg/injection, schedule: Q04DX003 (ip), vehicle: saline with Tween-80
[6] = dose: 200.0 mg/kg/injection, schedule: Q04DX003 (ip), vehicle: saline with Tween-80
[7] = dose: 400.0 mg/kg/injection, schedule: Q04DX003 (ip), vehicle: saline with Tween-80
[8] = dose: 100.0 mg/kg/injection, schedule: Q04DX003 (ip), vehicle: Klucel (hydroxypropylcellulose) (HPC)
[9] = dose: 200.0 mg/kg/injection, schedule: Q04DX003 (ip), vehicle: Klucel (hydroxypropylcellulose) (HPC)
[10] = dose: 400.0 mg/kg/injection, schedule: Q04DX003 (ip), vehicle: Klucel (hydroxypropylcellulose) (HPC)
[11] = dose: 25.0 mg/kg/injection, schedule: Q04DX003 (ip), vehicle: saline
[12] = dose: 50.0 mg/kg/injection, schedule: Q04DX003 (ip), vehicle: saline
[13] = dose: 100.0 mg/kg/injection, schedule: Q01DX009 (ip), vehicle: saline sonified

Measured: T/C

O=C(Nc1ccccc1O)/C(Cl)=C/Cl
inactive: [1] 109 % of control | dose: 100.0 mg/kg/injection, schedule: Q04DX003 (ip), vehicle: saline sonified 104 % of control | [2] 102 % of control | dose: 200.0 mg/kg/injection, schedule: Q04DX003 (ip), vehicle: saline sonified 106 % of control | [3] 88 % of control | dose: 400.0 mg/kg/injection, schedule: Q04DX003 (ip), vehicle: saline sonified 106 % of control

CC1(C)OC(=O)C(=Cc2c(Cl)cccc2Cl)C(=O)O1
inactive: dose: 100.0 mg/kg/injection, schedule: Q01DX001 (ip), vehicle: saline 98 % of control | [1] 104 % of control | [4] 99 % of control | dose: 200.0 mg/kg/injection, schedule: Q01DX001 (ip), vehicle: saline 95 % of control | [2] 92 % of control | dose: 200.0 mg/kg/injection, schedule: Q04DX003 (ip), vehicle: saline 94 % of control | dose: 400.0 mg/kg/injection, schedule: Q01DX001 (ip), vehicle: saline 96 % of control | dose: 400.0 mg/kg/injection, schedule: Q04DX003 (ip), vehicle: saline 97 % of control

COc1cc(C(C)O)cc(OC)c1OC (configuration not stated)
inactive: [1] 101 % of control | [5] 101 % of control | [2] 98 % of control | [6] 100 % of control | [3] 93 % of control | [7] 99 % of control

Cc1cc(OS(=O)(=O)/C=C/c2ccccc2)c(C(C)C)cc1Cl
inactive: dose: 100.0 mg/kg/injection, schedule: Q01DX001 (ip), vehicle: acetone 93 % of control | dose: 100.0 mg/kg/injection, schedule: Q01DX009 (ip), vehicle: acetone 100 % of control | dose: 200.0 mg/kg/injection, schedule: Q01DX001 (ip), vehicle: acetone 98 % of control | dose: 200.0 mg/kg/injection, schedule: Q01DX009 (ip), vehicle: acetone 98 % of control | dose: 400.0 mg/kg/injection, schedule: Q01DX001 (ip), vehicle: acetone 98 % of control | dose: 400.0 mg/kg/injection, schedule: Q01DX009 (ip), vehicle: acetone 95 % of control

COc1cc(NCCS(C)(=O)=O)ccc1C(=O)Nc1ccccc1
inactive: dose: 100.0 mg/kg/injection, schedule: Q01DX009 (ip), vehicle: Klucel (hydroxypropylcellulose) (HPC) 105 % of control | [8] 97 % of control | dose: 200.0 mg/kg/injection, schedule: Q01DX009 (ip), vehicle: Klucel (hydroxypropylcellulose) (HPC) 97 % of control | [9] 94 % of control | dose: 400.0 mg/kg/injection, schedule: Q01DX009 (ip), vehicle: Klucel (hydroxypropylcellulose) (HPC) 101 % of control | [10] 94 % of control

O=C(O)C1C(C(=O)O)C2(Cl)C(Cl)=C(Cl)C1(Cl)C2(Cl)Cl.[Fe] (configuration not stated)
inactive: dose: 25.0 mg/kg/injection, schedule: Q01DX009 (ip), vehicle: saline sonified 93 % of control | [11] 94 % of control | dose: 44.0 mg/kg/injection, schedule: Q01DX Z (ip), vehicle: carboxymethylcellulose (CMC) 92 % of control | dose: 50.0 mg/kg/injection, schedule: Q01DX001 (ip), vehicle: saline sonified 104 % of control | dose: 50.0 mg/kg/injection, schedule: Q01DX009 (ip), vehicle: saline sonified 93 % of control | [12] 95 % of control and 86 % of control | dose: 67.0 mg/kg/injection, schedule: Q01DX Z (ip), vehicle: carboxymethylcellulose (CMC) 91 % of control | dose: 100.0 mg/kg/injection, schedule: Q01DX001 (ip), vehicle: saline sonified 102 % of control | [13] 93 % of control | [4] 103 % of control | dose: 200.0 mg/kg/injection, schedule: Q01DX001 (ip), vehicle: saline sonified 98 % of control

O=c1cc(Cl)c2ccccc2[nH]1
inactive: [1] 95 % of control | [5] 103 % of control | [2] 91 % of control | [6] 94 % of control | [3] 100 % of control | [7] 103 % of control

N/N=C(\N)NC(=O)c1ccccc1
inactive: dose: 15.0 mg/kg/injection, schedule: Q01DX Z (ip), vehicle: saline 103 % of control | dose: 30.0 mg/kg/injection, schedule: Q01DX Z (ip), vehicle: saline 97 % of control | dose: 60.0 mg/kg/injection, schedule: Q01DX Z (ip), vehicle: saline 94 % of control | dose: 120.0 mg/kg/injection, schedule: Q01DX Z (ip), vehicle: saline 105 % of control | dose: 240.0 mg/kg/injection, schedule: Q01DX Z (oral), vehicle: saline 108 % of control | dose: 480.0 mg/kg/injection, schedule: Q01DX Z (oral), vehicle: saline 95 % of control | dose: 960.0 mg/kg/injection, schedule: Q01DX Z (oral), vehicle: saline 103 % of control | dose: 1920.0 mg/kg/injection, schedule: Q01DX Z (oral), vehicle: saline 101 % of control

CC12CCC(O)(CC1)CC2(O)c1ccccc1 (configuration not stated)
inactive: dose: 100.0 mg/kg/injection, schedule: Q04DX002 (ip), vehicle: saline 102 % of control | dose: 200.0 mg/kg/injection, schedule: Q04DX002 (ip), vehicle: saline 95 % of control | dose: 400.0 mg/kg/injection, schedule: Q04DX002 (ip), vehicle: saline 98 % of control

ClC1(Cl)CC1c1ccccc1 (configuration not stated)
inactive: [1] 101 % of control | [2] 91 % of control

Cc1ccc([Si](C)Cl)cc1
inactive: [5] 98 % of control | [6] 94 % of control | [7] 90 % of control

NC(CNC(=O)OCc1ccccc1)=NCC(=O)O
inactive: dose: 25.0 mg/kg/injection, schedule: Q04DX003 (ip), vehicle: saline with Tween-80 94 % of control | dose: 50.0 mg/kg/injection, schedule: Q04DX003 (ip), vehicle: saline with Tween-80 89 % of control | [5] 89 % of control and 92 % of control

CC(Cc1ccccc1)NCCCCl (configuration not stated)
inactive: dose: 15.0 mg/kg/injection, schedule: Q01DX001 (ip), vehicle: carboxymethylcellulose (CMC) 89 % of control | dose: 30.0 mg/kg/injection, schedule: Q01DX001 (ip), vehicle: carboxymethylcellulose (CMC) 95 % of control | dose: 60.0 mg/kg/injection, schedule: Q01DX001 (ip), vehicle: carboxymethylcellulose (CMC) 93 % of control

O=C(c1ccccc1)C1(Br)CCC1
inactive: [13] 101 % of control | dose: 200.0 mg/kg/injection, schedule: Q01DX009 (ip), vehicle: saline sonified 97 % of control | dose: 400.0 mg/kg/injection, schedule: Q01DX009 (ip), vehicle: saline sonified 101 % of control

CC(C)(Cc1ccc(F)cc1)NCc1ccccc1
inactive: dose: 25.0 mg/kg/injection, schedule: Q01DX009 (ip), vehicle: Klucel (hydroxypropylcellulose) (HPC) 92 % of control | dose: 25.0 mg/kg/injection, schedule: Q04DX003 (ip), vehicle: Klucel (hydroxypropylcellulose) (HPC) 101 % of control | dose: 50.0 mg/kg/injection, schedule: Q01DX009 (ip), vehicle: Klucel (hydroxypropylcellulose) (HPC) 95 % of control | dose: 50.0 mg/kg/injection, schedule: Q04DX003 (ip), vehicle: Klucel (hydroxypropylcellulose) (HPC) 103 % of control | [8] 88 % of control and 92 % of control

CC(=O)c1cccc(N=C=O)c1
inactive: dose: 25.0 mg/kg/injection, schedule: Q01DX001 (ip), vehicle: saline with Tween-80 101 % of control | dose: 50.0 mg/kg/injection, schedule: Q01DX001 (ip), vehicle: saline with Tween-80 93 % of control | dose: 100.0 mg/kg/injection, schedule: Q01DX001 (ip), vehicle: saline with Tween-80 111 % of control

CC(=O)OCCN1C(=O)c2ccccc2C1=O
inactive: [8] 104 % of control | [9] 117 % of control | [10] 101 % of control

CNc1c([N+](=O)[O-])ncn1C
inactive: dose: 12.5 mg/kg/injection, schedule: Q04DX003 (ip), vehicle: saline 98 % of control | [11] 94 % of control | [12] 91 % of control | [4] 97 % of control

CCOC(=O)CNc1cccc(I)c1
inactive: dose: 100.0 mg/kg/injection, schedule: Q04DX002 (ip), vehicle: Klucel (hydroxypropylcellulose) (HPC) 110 % of control | dose: 200.0 mg/kg/injection, schedule: Q04DX002 (ip), vehicle: Klucel (hydroxypropylcellulose) (HPC) 100 % of control | dose: 400.0 mg/kg/injection, schedule: Q04DX002 (ip), vehicle: Klucel (hydroxypropylcellulose) (HPC) 104 % of control
